Patent publication US20240174618A1, “SUBSTITUTED (2-HETEROARYLOXYPHENYL)SULFONATES, SALTS THEREOF AND THEIR USE AS HERBICIDAL AGENTS” (Bayer Aktiengesellschaft, priority 2021, published 2024)

Legend:
Assay type in all cases: in vivo
[1] = system: Kochia scoparia (KCHSC); experiment: A. Herbicidal pre-emergence efficacy, KCHSC
Method in brief: (§1)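 Pre-emergence soil-surface spray in sandy loam pots, WP/EC in water plus 0.5% additive, 600 L/ha. Visual % damage rating after about 3 weeks in greenhouse vs. untreated; 0% = control-like, 100% = dead plants. Rates up to 1280 g/ha.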

[2] = system: Kochia scoparia (KCHSC); experiment: B. Herbicidal post-emergence efficacy, KCHSC; details: for Post-emergence efficacy against KCHSC in %: rated visually after about 3 weeks; for Post-emergence efficacy against KCHSC: 1280 g/ha
Method in brief: (§2)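 Weeds grown in sandy loam in greenhouse pots, sprayed at one-leaf stage (2–3 weeks after sowing) with WP or EC formulations as aqueous suspension/emulsion plus 0.5% additive at 600 L/ha water, rates up to 1280 g/ha. Visual efficacy rated about 3 weeks later versus untreated controls (0% = like control, 100% = dead).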

[3] = system: Poa annua (POAAN); experiment: B. Herbicidal post-emergence efficacy, POAAN
Method in brief: as §2

[4] = system: Amaranthus retroflexus (AMARE); experiment: A. Herbicidal pre-emergence efficacy, AMARE
Method in brief: as §1

[5] = system: Setaria viridis (SETVI); experiment: A. Herbicidal pre-emergence efficacy, SETVI
Method in brief: as §1

[6] = system: Setaria viridis (SETVI); experiment: B. Herbicidal post-emergence efficacy, SETVI
Method in brief: as §2

[7] = system: Echinochloa crus-galli (ECHCG); experiment: E. Herbicidal post-emergence efficacy, ECHCG
Method in brief: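 Greenhouse weeds were treated post-emergence at the one-leaf stage, 2-3 weeks after sowing in sandy loam, with WP or EC formulations sprayed as aqueous suspension/emulsion plus 0.5% additive at 600 l/ha, at 320 g/ha or less. Efficacy was rated visually after about 3 weeks versus untreated controls (100% = dead, 0% = like control).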

[8] = pre-emergence, dosage 1280 g/ha
[9] = 80 g/ha, scored visually after about 3 weeks vs untreated controls

Row | Compound | Pre-emergence efficacy against KCHSC ([1]; pre-emergence, dosage 320 g/ha) [%] | Pre-emergence efficacy against KCHSC [1, 8] [%] | Post-emergence efficacy against KCHSC in % ([2]; 320 g/ha) [%] | Post-emergence efficacy against KCHSC [2] [%] | Post-emergence efficacy against POAAN ([3]; 1280 g/ha) [%] | Pre-emergence efficacy against AMARE in % ([4]; 80 g/ha) [%] | Pre-emergence efficacy against AMARE in % ([4]; 320 g/ha) [%] | Pre-emergence efficacy against AMARE in % ([4]; 1280 g/ha) [%] | Pre-emergence efficacy against SETVI ([5]; dosage 80 g/ha) [%] | Pre-emergence efficacy against SETVI ([5]; dosage 320 g/ha) [%] | Pre-emergence efficacy against SETVI ([5]; dosage 1280 g/ha) [%] | Post-emergence efficacy against SETVI ([6]; 1280 g/ha) [%] | Post-emergence efficacy against ECHCG in % ([7]; application rate 320 g/ha) [%] | Pre-emergence efficacy against KCHSC [1, 9] [%] | Post-emergence efficacy against KCHSC in % ([2]; 80 g/ha) [%] | Post-emergence efficacy against POAAN ([3]; 320 g/ha) [%] | Post-emergence efficacy against SETVI ([6]; 320 g/ha) [%] | Post-emergence efficacy against ECHCG in % ([7]; application rate 80 g/ha) [%] | Post-emergence efficacy against POAAN ([3]; 80 g/ha) [%]
1 | O=S(=O)(CCC(F)(F)F)Oc1c(Cl)cccc1Oc1ncc(Cl)cn1 [Example I-38] | 100 | 100 | 90 | 90 | 90 | 100 | 100 | 100 | 90 | 100 | 100 | 90 | 100 | – | – | – | – | – | –
2 | O=S(=O)(CCCC(F)(F)F)Oc1c(Cl)cccc1Oc1ncc(Cl)cn1 [Example I-39] | 100 | 100 | 90 | 90 | 90 | 100 | 100 | 100 | 90 | 100 | 100 | 90 | 100 | 100 | 90 | 90 | 90 | 90 | –
3 | O=S(=O)(CCC(F)(F)F)Oc1c(F)cccc1Oc1ncc(Br)cn1 [Example I-40] | 100 | 100 | 90 | 90 | 90 | 100 | 100 | 100 | 100 | 100 | 100 | 90 | 100 | 100 | 90 | 90 | 90 | 100 | –
4 | O=S(=O)(CCCC(F)(F)F)Oc1c(F)cccc1Oc1ncc(Br)cn1 [Example I-41] | 100 | 100 | 90 | 90 | 90 | 100 | 100 | 100 | 100 | 100 | 100 | 90 | 100 | 100 | 90 | 90 | 90 | 90 | –
5 | O=S(=O)(CCC(F)(F)F)Oc1c(F)cccc1Oc1ncc(Cl)cn1 [Example I-48] | 100 | 100 | 90 | 90 | 90 | 90 | 90 | 100 | 90 | 90 | 100 | 90 | 100 | 100 | 90 | 90 | 90 | 100 | 90
6 | O=S(=O)(CCCC(F)(F)F)Oc1c(F)cccc1Oc1ncc(Cl)cn1 [Example I-49] | 100 | 100 | 90 | 100 | 90 | 90 | 100 | 100 | 90 | 100 | 100 | 90 | 100 | 100 | 90 | – | 90 | 100 | –
7 | C=CCCS(=O)(=O)Oc1c(F)cccc1Oc1ncc(Cl)cn1 [Example I-50] | 100 | 100 | – | 90 | 90 | 90 | 90 | 100 | 90 | 90 | 100 | 90 | 100 | 90 | – | 90 | – | – | 90
8 | O=S(=O)(CC1CC(F)(F)C1)Oc1c(F)cccc1Oc1ncc(Cl)cn1 [Example I-53] | 100 | 100 | 90 | 90 | 90 | 100 | 100 | 100 | 100 | 100 | 100 | 90 | 100 | 100 | 90 | 90 | 90 | 100 | 90
9 | O=S(=O)(CCC1CC1)Oc1c(F)cccc1Oc1ncc(Cl)cn1 [Example I-55] | 100 | 100 | 90 | 90 | 90 | 100 | 100 | 100 | 100 | 100 | 100 | 90 | 100 | – | – | 90 | 90 | 90 | –
10 | O=S(=O)(CCCC(F)F)Oc1c(F)cccc1Oc1ncc(Cl)cn1 [Example I-56] | 100 | 100 | 90 | 90 | 90 | 100 | 100 | 100 | 100 | 100 | 100 | 90 | 100 | 100 | 90 | 90 | 90 | 80 | 90
11 | O=S(=O)(CCCC(F)(F)C(F)(F)F)Oc1c(F)cccc1Oc1ncc(Cl)cn1 [Example I-68] | 100 | 100 | 100 | 100 | 100 | – | 100 | 100 | 90 | 100 | 100 | 90 | 90 | 90 | 100 | 90 | 90 | – | –
12 | Cc1cccc(Oc2ncc(Cl)cn2)c1OS(=O)(=O)CC1CC(F)(F)C1 [Example I-74] | 90 | 100 | 100 | 100 | 100 | 90 | 100 | 100 | – | 90 | 100 | 100 | 100 | – | 90 | 100 | – | – | 90
